Assays:
[1] = biological target: T1, glycine transporter encoded by rB20a (Rattus norvegicus, UniProt P28572); test: Competition for [3H]glycine uptake by COS-7 cells transfected with rB20a; type: cell-based; settings: agents at 1 mM (Table 1)
T1 construct: expressed in transfected cells; host or cells: COS-7 cells, transient transfection with pSVL-rB20a
T1 sequence (P28572 1-638): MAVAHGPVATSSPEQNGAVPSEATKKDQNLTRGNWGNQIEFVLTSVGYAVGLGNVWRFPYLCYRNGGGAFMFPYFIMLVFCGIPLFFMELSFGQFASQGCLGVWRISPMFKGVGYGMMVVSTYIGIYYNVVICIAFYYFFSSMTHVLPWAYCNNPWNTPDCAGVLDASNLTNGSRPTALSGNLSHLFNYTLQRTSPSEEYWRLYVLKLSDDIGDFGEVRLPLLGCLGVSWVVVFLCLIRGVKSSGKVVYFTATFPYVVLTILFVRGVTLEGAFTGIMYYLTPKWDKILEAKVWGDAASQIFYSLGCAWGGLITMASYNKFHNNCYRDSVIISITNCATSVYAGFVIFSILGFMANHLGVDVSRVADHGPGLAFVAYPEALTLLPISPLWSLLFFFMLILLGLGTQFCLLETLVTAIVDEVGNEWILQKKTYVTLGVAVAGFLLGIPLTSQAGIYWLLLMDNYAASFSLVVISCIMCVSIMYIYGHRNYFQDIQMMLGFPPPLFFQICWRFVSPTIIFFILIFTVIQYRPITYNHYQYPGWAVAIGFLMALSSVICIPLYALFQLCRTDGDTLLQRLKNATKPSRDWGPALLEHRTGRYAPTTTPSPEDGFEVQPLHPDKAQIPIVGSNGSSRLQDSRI
Method: These two clones were constructed into a full-length clone (designated rB20a) by ligation at their internal Nco I sites and then cloned into the eukaryotic expression vector pSVL (Pharmacia LKB Biotechnology, Piscataway, N.J.). Transient transfection of COS cells was carried out using DEAE-dextran with DMSO according to the method of Lopata et al. (1984) with minor modifications. COS cells were grown in six-well plates (37° C.,5%CO2) in high glucose Dulbecco's modified Eagle medium supplemented with 10% bovine calf serum, 100 U/ml penicillin G, and 100 μg/ml streptomycin sulfate. Cells were routinely used two days after transfection for transport studies.
(§1) Plates were incubated at 37° C. for 10 or 20 minutes, then washed rapidly 3× with HBS. Cells were solubilized with 0.05% sodium deoxycholate/0.1N NaOH (1 ml/well), 0.5 ml aliquots were removed, neutralized with 1N HCl, and radioactivity was determined by scintillation counting. Protein was quantified in an aliquot of the solubilized cells with the Bradford Reagent (Biorad, Richmond, Calif.), according to the manufacturer's directions.
Nonspecific uptake was determined with 1 mM

[2] = biological target: T2, transporter encoded by rB20a (Rattus norvegicus, UniProt P28572); test: Screen of COS cells transfected with rB20a for transport of radiolabeled neurotransmitters and amino acids; type: cell-based; settings: data not shown
T2 sequence (P28572 1-638): T1 sequence (P28572 1-638)
Method: as §1

Compound	competition for [3H]glycine uptake (in words) [1]	effect of rB20a expression on uptake of the radiolabeled substrate [2]
N[C@@H](CO)C(=O)O [L-serine]	Neither α-(methylamino) isobutyric acid (1 mM), a substrate for system A, nor L-serine (1 mM), a substrate for system ASC, significantly competed	
CNC(C)(C)C(=O)O [α-(methylamino) Isobutyric acid]	Neither α-(methylamino) isobutyric acid (1 mM), a substrate for system A, nor L-serine (1 mM), a substrate for system ASC, significantly competed	
[^3 H]glutamate		did not significantly alter

From patent US6127131A (Synaptic Pharmaceutical Corporation, priority 1998, dated 2000)
